This is an account of results in patent publication US20170014352A1, “WATER-DISPERSIBLE AMORPHOUS PARTICLES AND METHOD FOR PREPARING SAME” (The University of Tokyo, priority 2014, published 2017).

Structures can show the parent of a compound that is named as a salt. Where two headings read alike, the source gives them in different places.

Data set [1] in a line: particle size (Z-average, hydrodynamic diameter) and PDI by dynamic light scattering (DLS). Type of data set: physicochemical. An excerpt:
The “particle size” herein means an average particle size, and is defined as a particle size (Z-average) measured by use of a dynamic light scattering (Dynamic Light Scattering: DLS) method. The particle size thus measured is also referred to as “hydrodynamic diameter”.
The “polydispersity index (Polydispersity index: PDI)” herein is an index for evaluating the width of a particle size distribution, and is in the range from 0 to 1. A value of 0 represents an ideal suspension without any size distribution. A distribution having a PDI value of 0.1 or less is referred to as “monodispersity”, and on the other hand, a dispersion having a value between 0.1 and 0.3 is considered to have a narrow size distribution. A dispersion having a PDI of more than 0.5 is considered to be polydisperse. The polydispersity index is calculated from the value obtained by use of a dynamic light scattering (Dynamic Light Scattering: DLS) method.
Measurement by a DLS method was performed by use of a laser light scattering apparatus (Zetasizer Nano ZS manufactured by Malvern instruments Ltd.). A scanning electron microscope (SEM) image was obtained by use of Magellan 4001 manufactured by FEI Company. Powder X-ray diffraction was performed by use of SmartLab manufactured by Rigaku Corporation. FDU-1200 manufactured by EYELA was used for a freeze-dryer.

The conditions of data set [2]: cited from earlier work; for log P: starting organic compound, Examples 9 and 10; for logP: measured value described in the literature.
For data set [3] the following is noted: at 25° C.; cited from earlier work.
Where [4] appears, read: Example 7: water injected into THF solution of compound (concentration 100 W), water dispersion.
Where [5] appears, read: Example 6: 100 μM THF solution of compound injected into water, THF distilled off, water dispersion.

Consider `c1ccc2cc3cc4cc5ccccc5cc4cc3cc2c1` [Pentacene, pentacene], for which, in data set [1] (setting [4]), the PDI stood at 0.02 and the “Particle size (nm)” value was found to be 116 nm.
The matching figures for `c1cc2ccc3cccc4ccc(c1)c2c34` [Pyrene, pyrene]: 0.13 and 120 nm.
In the case of `Cc1c(OCC(F)(F)F)ccnc1C[S+]([O-])c1nc2ccccc2[nH]1` (stereo not shown) [Lansoprazole], the lipophilicity (log P) – broadly, the decadic logarithm of the partition coefficient of the neutral form, usually between octanol and water – in data set [2] is given as 2.58. In addition, the solubility in water entry in data set [3] is recorded as “less than 0.1 mg/mL”.
For the molecule `COc1ccc(CC(C)NCC(O)c2ccc(O)c(NC=O)c2)cc1` (stereo not shown) [Formoterol fumarate hydrate], the “log P” value in data set [2] is 2.0. Besides, in data set [3], the solubility in water is 170 µg/mL.
On to `CCCc1nc2c(C)cc(-c3nc4ccccc4n3C)cc2n1Cc1ccc(-c2ccccc2C(=O)O)cc1` [Telmisartan, telmisartan, reference compound], for which the logP (in general, a log measure of how a compound divides between an organic and an aqueous phase) in data set [2] (Table 2) is 6.48. Moreover, in data set [1] (setting [4]), the PDI was 0.34 and the “Particle size (nm)” value stood at 10 nm.
Take pyrenecarboxylic acid: in data set [1], the PDI turned out to be 0.14 and the “Particle size (nm)” value was 76 nm.
With `CC(C)CCC[C@@H](C)[C@H]1CC[C@H]2[C@@H]3CC=C4C[C@@H](O)CC[C@]4(C)[C@H]3CC[C@]12C` [Cholesterol, cholesterol], the logP in data set [2] (Table 1) and in data set [2] (Table 2) was 9.61 in each case. Also, the PDI is given as 0.27 in data set [1] (setting [5]) and 0.02 in data set [1] (setting [4]). Further, the “Particle size (nm)” value is recorded as 228 nm in data set [1] (setting [5]) and 165 nm in data set [1] (setting [4]).
